Where a name gives a salt, the structure may show the parent alone. Read-outs that look alike come from different tables or passages of the source.
Columns and labels:
L1210 cells = test: PDC test, L1210 cell growth; assay type: cell-based, murine; conditions: Mus musculus, read-out: PDC ID50
Description: (c) Another test protocol is the PDC test. L1210 cells, a murine leukemia cell line, were grown in RPMI 1640 supplemented with 10% fetal bovine serum and genamicin (50 μg/ml). Drug dilutions were prepared in the appropriate solvent and 20 μl of each dilution were added to 24-well Linbro tissue culture plates followed by the addition of 2.0 ml of cell suspension containing 3×10^4 cells per ml. Solvent and medium controls were included in each test. After incubation at 37° C. for three days in 5% CO2 in air, the contents of each well were removed and the cells counted in a ZBI Coulter counter. Per cent growth was calculated relative to the controls and the levels of drug activity were expressed as ID50 in terms of molarity (M).

Bacillus cereus = test: in vitro antibacterial (ABMF) microdilution susceptibility test; assay type: cell-based; conditions: read-out: ABMF Test M.I.C. B. cere.
Excerpt: (§1) (d) Still another test protocol is the in vitro antibacterial (ABMF) test which is a recognized standard microdilution susceptibility procedure in Mueller-Hinton broth against gram-positive and gram-negative bacterial test organisms. The procedure is a modification of a state-of-the-art procedure reported in Manual of Clinical Microbiology, Lennette, E. H., ed., by Barry, A. L. and C. Thornsberry at pages 463-474 and by Gavan, T. L. and A. L. Barry at pages 459-462, American Society for Microbiology, Washington, 1980.
(§2) In the test, a given bacterial culture is used to inoculate individaul test wells of microdilution trays containing growth medium and test compound, the latter in a microdilution series: 1000, 333, 111, 37, 12, 4, 1.4, and 0.46 micrograms per milliliter. […] For convenience, values are reported for Escherichia coli, Branhamella catarrhalis, Alcaligenes viscolactis, Streptococcus pneumoniae, and Bacillus cereus

Branhamella catarrhalis = test: as above; assay type: cell-based; conditions: Moraxella catarrhalis, read-out: ABMF Test M.I.C. B. cata.
Excerpt: as §1, §2

Alcaligenes viscolactis = test: as above; assay type: cell-based; conditions: read-out: ABMF Test M.I.C. A. visc.
Excerpt: as §1, §2

Streptococcus pneumoniae = test: as above; assay type: cell-based; conditions: read-out: ABMF Test M.I.C. S. pneu.
Excerpt: as §1, §2

Escherichia coli = test: as above; assay type: cell-based; conditions: read-out: ABMF Test M.I.C. E. coli
Excerpt: as §1, §2

HCT-8 cells = test: in vitro proliferating human colon adenocarcinoma (HCA) cell screen, HCT-8; assay type: cell-based
Description: (a) One test protocol is the in vitro proliferating human colon adenocarcinoma (HCA) cell screen. In this test, HCT-8 cells (HCA cell line received from Yale University) are trypsinized using trypsin-EDTA. A single cell suspension is achieved by passing the cells through a 26 gauge needle with a 20-cc syringe. A cell suspension is prepared using RPMI 1640+10% FCS+50 μg/ml gentamicin sulfate with a cell concentration is approximately 30,000 cells/ml. The cell suspension is dispensed in Linbro 24-well plates; 1 ml/well. The plates are incubated for approximately 48 hours at 37° C. in a 5% CO2 atmosphere. At this time test compounds are added in the appropriate concentration. Five μl of the 200 μg/ml stock solution is added to each well in a primary test. […] of the appropriate dilution is added to each well for a titration test. The plates are reincubated an additional 60 to 65 hours at 37° C. in a 5% CO 2 atmosphere. The cells are lysed using a mix of cationic surfactant, glacial acetic acid, and sodium chloride. Two ml of the lysed cell suspension from each well is added to 8 ml of diluent. The number of nuclei is determined using a Coulter counter (ZBI model), and a percent growth for each drug concentration is calculated. From this, and ID50 (molar concentration of compound that results in 50% inhibition of growth) is determined.

[1] = tested on: lymphocytic leukemia P388; test: in vivo lymphocytic leukemia P388 test; design: species or system CD2 F1 mice; conditions: Mus musculus, P388, ip, 120 h
Description: Another test protocol is the in vivo lymphocytic leukemia P388 test. The animals used are either male or female CD2 F1 mice, six or seven animals per test group. The tumor transplant is by intraperitoneal injection of dilute ascitic fluid containing cells of lymphocytic leukemia P388. The test compounds are administered intraperitoneally once daily for five consecutive days at various doses following tumor inoculation. The animals are weighed and survivors are recorded on a regular basis for 30 days. A compound is designated "toxic" if, at a given dose, all animals died prior to four days after the first injection of drug. A ratio of survival time for treated (T)/control (C) animals is calculated. A criterion for efficacy is a ratio T/C times 100 greater than or equal to 125. See Cancer Chemotherapy Reports, Part 3, 3, 1 (1972) for a comprehensive discussion of the protocol.

[2] = Mueller-Hinton broth, 37° C., 16-24 hours
[3] = HCT-8 cells, 60 to 65 hours, ED50, read-out: HCA ED50 Avg.
[4] = 1.56 mg/kg, intraperitoneally once daily for five days, read-out: P388 in vivo T/C × 100
[5] = 3.12 mg/kg, intraperitoneally once daily for five days, read-out: P388 in vivo T/C × 100
[6] = 6.25 mg/kg, intraperitoneally once daily for five days, read-out: P388 in vivo T/C × 100
[7] = intraperitoneally once daily for five days, read-out: P388 in vivo T/C × 100

Row | Structure (SMILES) | MIC (Bacillus cereus; [2]) | MIC (Branhamella catarrhalis; [2]) | MIC (Alcaligenes viscolactis; [2]) | MIC (Streptococcus pneumoniae; [2]) | MIC (Escherichia coli; [2]) | IC50 (HCT-8 cells; [3]) | response vs control in vivo at 3.12 mg/kg [1, 5] | response vs control in vivo at 6.25 mg/kg [1, 6] | response vs control in vivo at 12.5 mg/kg [1, 7] | further results
1 | CCN(CC)CCn1nc2c3c(c([N+](=O)[O-])cc([N+](=O)[O-])c31)Nc1ccc(OCc3ccccc3)cc1-2 [Example 52, N,N-Diethyl-3,5-dinitro-9-(phenylmethoxy)pyrazolo [3,4,5-kl]-2(6H)-ethanamine, methanesulfonate, hemihydrate] | – | – | – | – | – | – | – | – | – | IC50 (L1210 cells; L1210, 72 h): 750 nM
2 | CCN(CC)CCn1nc2c3c(c([N+](=O)[O-])ccc31)Nc1ccc(OCc3ccc(OC)cc3)cc1-2 [Example 22, N,N-Diethyl-9-[(4-methoxyphenyl)methoxy]-5-nitropyrazolo[3,4,5-kl]acridine-2(6H)-ethanamine, methanesulfonate (salt) (1:1)] | – | – | – | – | – | – | – | – | – | IC50 (L1210 cells; 72 h, L1210 cells, three days): 820 nM
3 | CCN(CC)CCn1nc2c3c(c([N+](=O)[O-])ccc31)Nc1ccc(OC(=O)c3ccccc3)cc1-2 [Example 31, 2-[2-(Diethylamino)ethyl]-2,6-dihydro-5-nitropyrazolo [3,4,5-kl]acridin-9-ol, benzoate (ester), methanesulfonate (1:1) (salt), monohydrate] | – | – | – | – | – | – | – | – | – | IC50 (L1210 cells; 72 h, L1210 cells, three days): 3 nM
4 | CCN(CC)CCn1nc2c3c(c([N+](=O)[O-])ccc31)Nc1ccc(O[Si](C)(C)C(C)(C)C)cc1-2 [Example 26, 9-[[(1,1-Dimethylethyl)dimethylsilyl]oxy]-N,N-diethyl-5-nitropyrazolo[3,4,5-kl]acridine-2(6H)-ethanamine, methanesulfonate (salt) (1:1)] | – | – | – | – | – | – | – | – | – | MIC (Bacillus cereus): > 1000 µg/mL; MIC (Branhamella catarrhalis): > 1000 µg/mL; MIC (Alcaligenes viscolactis): 37 µg/mL; MIC (Streptococcus pneumoniae): > 1000 µg/mL; MIC (Escherichia coli): > 1000 µg/mL; IC50 (HCT-8 cells; HCT-8, read-out: HCA ED50 Avg.): 6.4 nM; response vs control in vivo at 1.56 mg/kg ([1]; read-out: P388 in vivo T/C × 100, 1.56 mg/kg, intraperitoneally once daily for five days): 154%; response vs control in vivo at 3.12 mg/kg ([1]; read-out: P388 in vivo T/C × 100, 3.12 mg/kg, intraperitoneally once daily for five days): 158%; response vs control in vivo at 6.25 mg/kg ([1]; read-out: P388 in vivo T/C × 100, 6.25 mg/kg, intraperitoneally once daily for five days): 211%
5 | CCCCOc1ccc2c(c1)-c1nn(CCNCCO)c3ccc([N+](=O)[O-])c(c13)N2 [Example 41, 2-[[2-(9-Butoxy-5-nitropyrazolo[3,4,5-kl]acridin-2(6H)-yl)ethyl]amino]ethanol, methanesulfonate, hemihydrate] | 12.3 µg/mL | 1.4 µg/mL | < 0.46 µg/mL | 12.3 µg/mL | 3.7 µg/mL | 340 nM | 147% | 159% | 174% | response vs control in vivo at 1.56 mg/kg [1, 4]: 141%
6 | CCN(CC)CCn1nc2c3c(c([N+](=O)[O-])ccc31)Nc1ccc(OC(=O)C(C)(C)C)cc1-2 [Example 28, 2-[2-(Diethylamino)ethyl]-2,6-dihydro-5-nitropyrazolo[3,4,5-kl]acridin-9-ol, 2,2-dimethylpropanoate (ester), methanesulfonate (salt) (1:1)] | – | – | – | – | – | – | 221% | 223% | – | IC50 (L1210 cells; 72 h, L1210 cells, three days): 7.2 nM
7 | CCCOc1ccc2c(c1)-c1nn(CCN(CC)CC)c3ccc([N+](=O)[O-])c(c13)N2.CS(=O)(=O)O [Example 19, N,N-Diethyl-5-nitro-9-propoxypyrazolo[3,4,5-kl]acridine-2(6H)-ethanamine, methanesulfonate salt (1:1)] | 12.3 µg/mL | < 0.46 µg/mL | < 0.46 µg/mL | < 0.46 µg/mL | 1000 µg/mL | 310 nM | 137% | 167% | – | –
8 | CN(C)CCCn1nc2c3c(c([N+](=O)[O-])ccc31)Nc1ccc(O)cc1-2 [Example 44, 2-[3-(Dimethylamino)propyl]-2,6-dihydro-5-nitropyrazolo[3,4,5-kl]acridin-9-ol, methanesulfonate] | 0.46 µg/mL | < 0.46 µg/mL | < 0.46 µg/mL | 0.46 µg/mL | < 0.46 µg/mL | 12 nM | 270% | – | – | response vs control in vivo at 0.39 mg/kg ([1]; 0.39 mg/kg, intraperitoneally once daily for five days, read-out: P388 in vivo T/C × 100): 162%; response vs control in vivo at 0.78 mg/kg ([1]; 0.78 mg/kg, intraperitoneally once daily for five days, read-out: P388 in vivo T/C × 100): 182%; response vs control in vivo at 1.56 mg/kg [1, 4]: 200%
9 | CCOc1ccc2c(c1)-c1nn(CCN(CC)CC)c3ccc([N+](=O)[O-])c(c13)N2.CS(=O)(=O)O [Example 18, N,N-Diethyl-9-ethoxy-5-nitropyrazolo[3,4,5-kl]acridine-2(6H)-ethanamine, methanesulfonate (1:1)] | 12.3 µg/mL | 1.4 µg/mL | < 0.46 µg/mL | < 0.46 µg/mL | 12.3 µg/mL | 110 nM | – | 169% | 201% | response vs control in vivo at 3.13 mg/kg ([1]; 3.13 mg/kg, intraperitoneally once daily for five days, read-out: P388 in vivo T/C × 100): 135%
10 | CCN(CC)CCn1nc2c3c(c([N+](=O)[O-])ccc31)Nc1c(OC)cccc1-2.CS(=O)(=O)O [Example 17, N,N-Diethyl-7-methoxy-5-nitropyrazolo[3,4,5-kl]acridine-2(6H)-ethanamine, methanesulfonate (1:1)] | < 0.46 µg/mL | < 0.46 µg/mL | < 0.46 µg/mL | < 0.46 µg/mL | < 0.46 µg/mL | 510 nM | – | – | 106% | –
11 | CCOc1ccc2c(c1)-c1nn(CCCN(C)C)c3ccc([N+](=O)[O-])c(c13)N2.CS(=O)(=O)O [Example 46, 9-Ethoxy-N,N-dimethyl-5-nitropyrazolo[3,4,5-kl]acridine-2(6H)-propanamine, methanesulfonate (1:1)] | 4.1 µg/mL | 1.4 µg/mL | < 0.46 µg/mL | 4.1 µg/mL | 12.3 µg/mL | 55 nM | 137% | 169% | 232% | response vs control in vivo at 1.56 mg/kg [1, 4]: 132%

Reference: US4555572A, “Pyrazolo[3,4,5-kl]acridine compositions and methods for their production and use” (Warner-Lambert Company, priority 1984, dated 1985)
